Measurements: US20260216067A1, “CARRIER AS A MULTIFUNCTIONAL SYSTEM” (LIFESOME THERAPEUTICS, S.L., priority 2022, published 2026)
pIC50: −log10 of the molar value.

Key:
PC3 = assay: MTT cell viability test, PC3; format: cell-based; conditions: Homo sapiens, PC-3, 72 h, up to 3 days, read-out: tumor cell viability
Description: (§1) Ohmline nanoparticles were used to deliver docetaxel into different cancer cell lines. Cell viability was determined using tetrazolium salt reduction method (MTT)(CyQUANT™ MTT Cell Viability Assary, Thermo Fisher Scientific product V13154: https://www.thermofisher.com/order/catalog/product/V13154?ef_id=4431670897231bd9f4af0 436727d3335: G: s&s_kwcid=AL!3652!10!77240846955634!77240903742099&cid=bid_pca_i va_r01_co_cp1359_pjt0000_bid00000_Ose_bng_nt_pur_con&msclkid=4431670897231bd9f 4af0436727d3335 #/V13154), that reflects the number of viable cells. 6500 cells were seeded at day=0 in a 48 wells plate. Each well was filled up with the regular medium of the cancer cell. At day=1 the medium was aspirated and replaced with new media for each formulation to be tested. Cells were incubated up to 3 days.
(§2) At the end of the incubation, the medium was aspirated and replaced with MTT solution at 0.5 mg/ml concentration. The plate was incubated at 37° C. by 30-45 min. After incubation the supernatant was aspirated, and the formed crystals dissolved with DMSO and gently agitation at room temperature protected from the light. 200 μl were transferred from each well to 96 well plates to measure the absorbance at 570 nm. (see FIGS. 8A, 8B and 8C).
(§3) Ohmline control at 1 and 5 μM, in MLV formulation.
(§4) DOX is docetaxel at 0,5 and 1 nM, in DMSO. […]

MDA MB 435 = assay: MTT cell viability test, MDA MB 435; format: cell-based; conditions: Homo sapiens, 72 h, up to 3 days, read-out: tumor cell viability
Description: as §1, §2, §3, §4

MCF7 = assay: MTT cell viability test, MCF7; format: cell-based; conditions: Homo sapiens, 72 h, up to 3 days, read-out: tumor cell viability
Description: as §1, §2, §3, §4

MDA MB 231 = assay: MTT cell viability test, MDA MB 231; format: cell-based; conditions: Homo sapiens, 72 h, up to 3 days, read-out: tumor cell viability
Description: as §1, §2, §3, §4

SW620 = assay: MTT cell viability test, SW620; format: cell-based; conditions: Homo sapiens, SW-620, 72 h, up to 3 days, read-out: tumor cell viability
Description: as §1, §2, §3, §4

[1] = tested on: MDA-MB-231, HCT116, PC3, HaCaT and fibroblasts; conditions: 25 μM for 48 h; cited from earlier work
[2] = ADME studies, distribution; format: in vivo
[3] = tested on: SK3-expressing cancer cells; conditions: at 10 nM; cited from earlier work
[4] = Ames tests; cited from earlier work
[5] = cited from earlier work
[6] = cited from earlier work; remark: listed apart in the source
[7] = 15 mg/Kg, up to 4 months treatment; cited from earlier work
SK3 channel = SK3 channel (Homo sapiens, UniProt Q9UGI6); conditions: cited from earlier work
IKCa/SK4 channel = IKCa/SK4 channel (Homo sapiens, UniProt O15554); conditions: cited from earlier work
SK2 channel = SK2 channel (Homo sapiens, UniProt Q9H2S1); conditions: cited from earlier work
SKCa channels = conditions: cited from earlier work
protein kinase C (PKC) = conditions: cited from earlier work
[8] = biological target: receptors for platelet activating factor (PAF) (Homo sapiens, UniProt P25105); conditions: cited from earlier work
[9] = tested on: receptors for lysophosphatidic acid (LPA); conditions: cited from earlier work
SK3-expressing cells = conditions: in vivo; cited from earlier work
[10] = rodents; no observable tissue damage by a pathologist; cited from earlier work

receptors for platelet activating factor (PAF), sequence (P25105 whole entry): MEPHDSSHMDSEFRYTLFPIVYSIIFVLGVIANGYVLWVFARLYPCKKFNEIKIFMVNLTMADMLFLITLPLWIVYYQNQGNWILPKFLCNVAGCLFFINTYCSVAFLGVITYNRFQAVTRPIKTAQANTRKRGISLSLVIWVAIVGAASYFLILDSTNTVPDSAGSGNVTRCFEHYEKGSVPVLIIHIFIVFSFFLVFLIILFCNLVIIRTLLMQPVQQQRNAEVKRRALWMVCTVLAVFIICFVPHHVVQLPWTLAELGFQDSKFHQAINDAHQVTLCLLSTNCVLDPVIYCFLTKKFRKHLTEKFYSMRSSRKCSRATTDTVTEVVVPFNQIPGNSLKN
IKCa/SK4 channel, sequence (O15554 whole entry): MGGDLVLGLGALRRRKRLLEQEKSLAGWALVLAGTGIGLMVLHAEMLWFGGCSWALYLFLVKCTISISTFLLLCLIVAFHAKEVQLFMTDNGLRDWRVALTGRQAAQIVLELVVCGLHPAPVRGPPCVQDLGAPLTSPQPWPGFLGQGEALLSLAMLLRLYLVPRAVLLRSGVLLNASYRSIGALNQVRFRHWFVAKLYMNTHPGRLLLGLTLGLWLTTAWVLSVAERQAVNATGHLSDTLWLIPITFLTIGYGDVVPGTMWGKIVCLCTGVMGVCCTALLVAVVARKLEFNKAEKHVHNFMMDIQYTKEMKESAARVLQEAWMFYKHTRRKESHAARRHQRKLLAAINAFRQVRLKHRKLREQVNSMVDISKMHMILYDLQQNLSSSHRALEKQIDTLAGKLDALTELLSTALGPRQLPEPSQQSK
SK2 channel, sequence (Q9H2S1 whole entry): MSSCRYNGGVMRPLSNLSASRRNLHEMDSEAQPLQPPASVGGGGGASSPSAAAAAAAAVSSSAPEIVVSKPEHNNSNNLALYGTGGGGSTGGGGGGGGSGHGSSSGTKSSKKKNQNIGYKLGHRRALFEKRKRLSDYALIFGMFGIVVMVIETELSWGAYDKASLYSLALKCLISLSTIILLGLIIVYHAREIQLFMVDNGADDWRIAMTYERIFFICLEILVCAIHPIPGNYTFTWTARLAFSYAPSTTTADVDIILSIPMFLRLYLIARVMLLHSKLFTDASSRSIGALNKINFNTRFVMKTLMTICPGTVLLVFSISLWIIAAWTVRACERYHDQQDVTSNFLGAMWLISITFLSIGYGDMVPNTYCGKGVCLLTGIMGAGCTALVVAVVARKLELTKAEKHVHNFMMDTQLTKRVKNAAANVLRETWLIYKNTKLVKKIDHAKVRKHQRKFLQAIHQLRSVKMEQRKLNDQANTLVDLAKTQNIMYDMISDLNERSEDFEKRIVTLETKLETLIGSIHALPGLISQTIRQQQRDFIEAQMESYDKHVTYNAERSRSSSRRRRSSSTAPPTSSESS

## CC(=O)O[C@@]12CO[C@@H]1C[C@H](O)[C@@]1(C)C(=O)[C@H](O)C3=C(C)[C@@H](OC(=O)[C@H](O)[C@@H](NC(=O)OC(C)(C)C)c4ccccc4)C[C@@](O)([C@@H](OC(=O)c4ccccc4)[C@H]21)C3(C)C [DOX, docetaxel]
PC3; DOX 0.5 nM in DMSO
  viability at 0.0005 µM: 79%
PC3; DOX 1 nM in DMSO
  viability at 0.001 µM: 73%
MDA MB 435; DOX 0.5 nM in DMSO
  viability at 0.0005 µM: 100%
MDA MB 435; DOX 1 nM in DMSO
  viability at 0.001 µM: 69%
MCF7; DOX 0.5 nM in DMSO
  viability at 0.0005 µM: 97%
MCF7; DOX 1 nM in DMSO
  viability at 0.001 µM: 84%
MDA MB 231; DOX 0.5 nM in DMSO
  viability at 0.0005 µM: 72%
MDA MB 231; DOX 1 nM in DMSO
  viability at 0.001 µM: 73%
SW620; DOX 0.5 nM in DMSO
  viability at 0.0005 µM: 99%
SW620; DOX 1 nM in DMSO
  viability at 0.001 µM: 92%

## CCCCCCCCCCCCCCCCCCOCC(COP(=O)([O-])OCC[N+](C)(C)C)OC (centres unmarked) [Edelfosine]
[1]
  cells still alive: ~0%

## CCCCCCCCCCCCCCCCOCC(COC1OC(CO)C(OC2OC(CO)C(O)C(O)C2O)C(O)C1O)OC (centres unmarked) [Ohmline, 1-O-hexadecyl-2-O-methyl-sn-glycero-3-lactose]
[2]
  distribution to brain: able to cross the blood brain barrier
[3]
  reduction of migration of SK3-expressing cancer cells (efficiency): 50%
[4]
  mutagenic potential: no mutagenic potential
[5]; at 100 μM
  micronuclei test effect: weak positive effect
[5]; concluded from Ames and micronuclei tests
  in vitro concentrations with no toxicity or genotoxicity: lower than 10 μM
[6]; after the end of administration
  persistence in brain: present in brain still two weeks after the end of its administration
[6]; stomach, intestine, kidney, liver, heart and brain
  incorporation in tissues: incorporated in the tissues tested
[7]
  acute toxicity: no acute toxicity
SK3 channel; SK3 channel
  pIC50: 6.52
SK3 channel
  potency SK3 versus SK1 channel: greater for SK3 channel than for SK1 channel
IKCa/SK4 channel
  effect on IKCa/SK4 channel: did not affect
SK2 channel
  effect on SK2 channel: only slightly but not significantly affected
SKCa channels
  displacement of apamin from SKCa channels: did not displace
Protein kinase C (PKC)
  effect on protein kinase C (PKC): no effect
[8]
  effect on receptors for platelet activating factor (PAF): no effect
[9]
  effect on receptors for lysophosphatidic acid (LPA): no effect
SK3-expressing cells
  metastasis development: reduce not only bone metastasis development but also lung and lymph node metastases
[10]
  tolerance and safety: good tolerance and an apparent safety
